Measurements as given in patent US9458164B2, “Pyrrolopyridazines as potassium ion channel inhibitors” (BRISTOL-MYERS SQUIBB COMPANY, priority 2013, dated 2016).

Target: T1, human KV 1.5 (IKur) (Homo sapiens, UniProt P22460)
T1 construct: expressed in transfected cells
Assay: Block of IKur current in patch clamped L-929 cells expressing human Kv1.5
Assay type: cell-based
Details: L929, patch clamped mammalian L-929 cells stably expressing human Kv1.5, read-out: Percentage inhibition of Kv1.5 in L-929 cells at 0.3 μM
Excerpt: Assays to determine the degree of activity of a compound as an IKur inhibitor are well known in the art and are described in references such as J. Gen. Physiol., 101(4):513-543 (April 1993), and Br. J. Pharmacol., 115(2):267-274 (May 1995).
Synders, D. J. et al., “A rapidly activating and slowly inactivating potassium channel cloned from human heart: functional analysis after stable mammalian cell culture expression”, J. Gen. Physiol., 101:513-543 (1993). • 2. Zhou, Z. et al., “Block of HERG potassium channels by the antihistamine astemizole and its metabolites desmethylastemizole and norastemizole”, J. Cardiovasc. Electrophysiol., 10(6):836-843 (1999).

T1 sequence (P22460 whole entry): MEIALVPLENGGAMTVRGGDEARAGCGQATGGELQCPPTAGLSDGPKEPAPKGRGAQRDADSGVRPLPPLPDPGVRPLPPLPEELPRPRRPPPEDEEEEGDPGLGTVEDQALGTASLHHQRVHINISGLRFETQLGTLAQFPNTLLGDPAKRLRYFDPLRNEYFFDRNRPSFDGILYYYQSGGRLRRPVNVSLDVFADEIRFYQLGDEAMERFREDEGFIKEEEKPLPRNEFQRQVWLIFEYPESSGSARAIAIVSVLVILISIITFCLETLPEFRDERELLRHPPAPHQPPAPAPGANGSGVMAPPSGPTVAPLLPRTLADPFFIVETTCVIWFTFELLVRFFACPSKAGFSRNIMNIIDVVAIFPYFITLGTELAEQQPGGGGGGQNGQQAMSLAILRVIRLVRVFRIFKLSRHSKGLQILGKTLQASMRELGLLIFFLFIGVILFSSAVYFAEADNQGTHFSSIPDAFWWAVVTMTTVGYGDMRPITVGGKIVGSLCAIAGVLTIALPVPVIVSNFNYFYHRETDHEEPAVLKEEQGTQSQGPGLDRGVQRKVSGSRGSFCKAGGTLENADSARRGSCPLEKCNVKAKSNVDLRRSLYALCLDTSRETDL

SMILES	inhibition at 0.3 µM
NS(=O)(=O)c1cncc(-c2cc(NCc3ccccc3)c3c(-c4ccccc4)ccn3n2)c1 [Example 1, 5-(4-(Benzylamino)-5-phenylpyrrolo[1,2-b]pyridazin-2-yl)pyridine-3-sulfonamide]	99%
CC(=O)NS(=O)(=O)c1cncc(-c2cc(NCc3ccccc3)c3c(-c4ccccc4)ccn3n2)c1 [Example 2, N-((5-(4-(Benzylamino)-5-phenylpyrrolo[1,2-b]pyridazin-2-yl)pyridin-3-yl)sulfonyl)acetamide]	37%
CC(=O)Nc1cncc(-c2cc(NCc3ccccc3)c3c(-c4ccccc4)ccn3n2)c1 [Example 3, N-(5-(4-(Benzylamino)-5-phenylpyrrolo[1,2-b]pyridazin-2-yl)pyridin-3-yl)acetamide]	98%
CS(=O)(=O)Nc1cncc(-c2cc(NCc3ccccc3)c3c(-c4ccccc4)ccn3n2)c1 [Example 4, N-(5-(4-(Benzylamino)-5-phenylpyrrolo[1,2-b]pyridazin-2-yl)pyridin-3-yl)methanesulfonamide]	98%
CCOC(=O)c1cncc(-c2cc(NCc3ccccc3)c3c(-c4cncc(C(=O)OCC)c4)ccn3n2)c1 [Example 5, Diethyl 5,5′-(4-(benzylamino)pyrrolo[1,2-b]pyridazine-2,5-diyl)dinicotinate]	34%
NS(=O)(=O)c1cncc(-c2cc(NCc3ccccc3)c3c(-c4cccc(F)c4)ccn3n2)c1 [Example 6, 5-(4-(Benzylamino)-5-(3-fluorophenyl)pyrrolo[1,2-b]pyridazin-2-yl)-pyridine-3-sulfonamide]	95%
